Data reported in paper PMC7730961, “Discovery of Novel Dual Extracellular Regulated Protein Kinases (ERK) and Phosphoinositide 3-Kinase (PI3K) Inhibitors as a Promising Strategy for Cancer Therapy” (Molecules, 2020).

Columns and labels:
ERK 2 = ERK 2 (Homo sapiens, UniProt P28482); assay: Enzymatic inhibition assay (ADP-Glo Plus luminescence kinase assay), ERK2; assay type: biochemical; conditions: 100 nM compound
Experimental: (§1) All compounds were diluted in 10% DMSO and tested in 10-dose with 3-fold serial dilution starting at a concentration of 1 μM. Of the dilution, 5 µL was added to a 50 µL reaction so that the final concentration of DMSO is 1% in all of reactions. After all of the reaction mixtures were conducted at 30 °C for 40 min, the assay was performed using ADP-Glo Plus luminescence kinase assay kit. The luminescence signal and the intensity of the luminescence signal value were detected using a multi-well spectrophotometer (the MD-SpectraMax M5 multifunctional microplate reader). It was directly proportional to the inhibition of enzyme activity.

PI3Kα = PI3Kα (Homo sapiens, UniProt P42336); assay: Enzymatic inhibition assay (ADP-Glo Plus luminescence kinase assay), PI3Kα; assay type: biochemical; conditions: 100 nM compound
Experimental: as §1, with “The 50 µL reaction mixture contains 40 mM Tris-HCl, pH 7.4, 10 µM ATP, 10 mM MgCl2, 0.1 mg/mL BSA, 1 mM DTT, 0.2 ug/mL ERK 2, ERK 1, PI3Kα, PI3Kβ, PI3Kγ or PI3Kδ and 100 uM lipid substrate. All” for “All”, “activity. The experimental results were converted into active percentages, a dose-response curve is drawn, and the IC50 value of inhibition was calculated using […] PRISM 5 nonlinear regression.” for “activity.”

HEC1B = assay: Anti-proliferation assay (MTT, 72 h), HEC1B; assay type: cell-based; conditions: Homo sapiens, HEC-1B, HEC1B cells
Experimental: (§2) Human cancer cell lines HCT116 and HEC1B were cultured in media with 10% FBS (GIBCO, Invitrogen Corporation, NY, USA) at 37 °C in a 5% (v/v) CO2 humidified incubator. The logarithmic growth phase cells were seeded in a 96-well plate with a density of 1 × 10^5 cells/mL, cultured at 37 °C, 5% CO2. Until the cells were 90% confluent, the medium containing compound was added to incubate for 72 h, and then the cell viability was tested by MTT analysis. Taking the drug concentration as the abscissa and the percentage of proliferation inhibitory activity corresponding to each concentration as the ordinate, using Graphpad Prism 5 to do nonlinear regression, the IC50 value of each compound was calculated.

HCT116 = assay: Anti-proliferation assay (MTT, 72 h), HCT116; assay type: cell-based; conditions: Homo sapiens, HCT-116, HCT116 cells
Experimental: as §2

Solubility = assay type: physicochemical; conditions: relative to parent after introducing a hydrophilic group at the pyrazole NH

Sequence of PI3Kα (P42336 whole entry): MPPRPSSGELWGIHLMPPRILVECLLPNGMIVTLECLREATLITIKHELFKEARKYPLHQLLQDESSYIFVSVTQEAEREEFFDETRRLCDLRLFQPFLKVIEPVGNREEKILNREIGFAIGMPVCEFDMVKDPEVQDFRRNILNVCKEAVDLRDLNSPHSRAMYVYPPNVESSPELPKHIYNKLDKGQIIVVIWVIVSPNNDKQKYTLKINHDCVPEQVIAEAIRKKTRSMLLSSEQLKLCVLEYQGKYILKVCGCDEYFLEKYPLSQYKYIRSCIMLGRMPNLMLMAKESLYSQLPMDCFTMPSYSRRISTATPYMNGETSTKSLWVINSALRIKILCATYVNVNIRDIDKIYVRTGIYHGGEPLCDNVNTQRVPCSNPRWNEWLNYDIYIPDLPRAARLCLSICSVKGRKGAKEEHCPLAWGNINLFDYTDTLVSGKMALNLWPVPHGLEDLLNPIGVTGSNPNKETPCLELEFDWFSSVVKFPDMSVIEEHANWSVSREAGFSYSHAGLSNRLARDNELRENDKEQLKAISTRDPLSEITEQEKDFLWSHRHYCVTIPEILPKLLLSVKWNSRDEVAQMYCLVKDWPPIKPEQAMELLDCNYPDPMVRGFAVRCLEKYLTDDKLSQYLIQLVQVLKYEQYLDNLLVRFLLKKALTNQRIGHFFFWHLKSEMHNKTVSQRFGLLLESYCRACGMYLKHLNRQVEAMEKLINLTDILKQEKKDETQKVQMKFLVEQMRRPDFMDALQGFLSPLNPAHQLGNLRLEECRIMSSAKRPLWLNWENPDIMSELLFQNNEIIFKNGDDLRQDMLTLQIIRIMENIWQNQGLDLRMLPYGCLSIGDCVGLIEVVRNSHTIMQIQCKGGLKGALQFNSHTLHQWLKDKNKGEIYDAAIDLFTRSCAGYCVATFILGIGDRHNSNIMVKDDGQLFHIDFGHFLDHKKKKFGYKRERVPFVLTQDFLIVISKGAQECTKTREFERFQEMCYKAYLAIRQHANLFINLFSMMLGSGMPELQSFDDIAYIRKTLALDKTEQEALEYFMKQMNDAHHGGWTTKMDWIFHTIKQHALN
Sequence of PI3Kα (P27986 whole entry partner): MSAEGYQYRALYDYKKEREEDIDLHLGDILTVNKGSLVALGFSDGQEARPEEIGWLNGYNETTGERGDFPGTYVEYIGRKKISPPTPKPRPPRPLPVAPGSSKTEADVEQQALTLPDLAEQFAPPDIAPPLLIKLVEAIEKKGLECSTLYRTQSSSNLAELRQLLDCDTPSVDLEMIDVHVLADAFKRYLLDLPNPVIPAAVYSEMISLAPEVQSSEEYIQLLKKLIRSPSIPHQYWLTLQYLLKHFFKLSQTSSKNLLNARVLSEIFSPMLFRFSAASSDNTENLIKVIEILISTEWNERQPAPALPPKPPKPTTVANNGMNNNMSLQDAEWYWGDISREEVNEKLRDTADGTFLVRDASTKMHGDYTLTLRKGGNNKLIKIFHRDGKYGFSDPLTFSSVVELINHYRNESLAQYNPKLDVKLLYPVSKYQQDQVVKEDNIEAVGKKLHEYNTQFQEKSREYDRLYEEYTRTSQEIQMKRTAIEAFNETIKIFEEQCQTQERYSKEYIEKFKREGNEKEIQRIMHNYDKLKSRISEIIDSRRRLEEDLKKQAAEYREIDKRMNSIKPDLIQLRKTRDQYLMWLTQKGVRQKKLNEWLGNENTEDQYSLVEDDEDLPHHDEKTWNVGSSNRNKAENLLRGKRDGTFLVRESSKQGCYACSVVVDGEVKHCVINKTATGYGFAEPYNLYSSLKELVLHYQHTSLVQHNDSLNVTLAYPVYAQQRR
Sequence of ERK 2 (P28482 whole entry): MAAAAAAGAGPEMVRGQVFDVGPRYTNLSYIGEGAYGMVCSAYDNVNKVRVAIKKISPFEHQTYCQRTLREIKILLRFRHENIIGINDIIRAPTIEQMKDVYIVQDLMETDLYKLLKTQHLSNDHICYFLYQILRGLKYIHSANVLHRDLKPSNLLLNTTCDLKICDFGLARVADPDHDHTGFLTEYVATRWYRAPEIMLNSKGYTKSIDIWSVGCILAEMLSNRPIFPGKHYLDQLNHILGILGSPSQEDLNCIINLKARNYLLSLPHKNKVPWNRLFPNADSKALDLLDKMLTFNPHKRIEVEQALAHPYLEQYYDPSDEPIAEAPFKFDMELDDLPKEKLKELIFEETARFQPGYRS

`O=C(Nc1ncc2ncc(-c3cnn(CCN4CCOCC4)c3)cc2n1)NC1CCCC1` [32l, 1-Cyclopentyl-3-(7-(1-(2-morpholinoethyl)-1H-pyrazol-4-yl)pyrido[3,2-d]pyrimidin-2-yl)urea] showed an inhibition at 0.1 µM (ERK 2) of 21.4%, an inhibition at 0.1 µM (PI3Kα) of 63.8% and an IC50 (HEC1B) of 3.63 µM. The IC50 (HCT116) was 1760 nM and the solubility (Solubility) was “ameliorated”.
